Several values for one entry are separate records, joined by “and”; a condition that tells them apart may be missing. Equal entries are not always repeated. Where two headings read alike, the source gives them in different places.
Tests used:
[1] = tested on: TSH; assay: Serum TSH after oral administration to hypothyroid rats (chemiluminescent immunoassay); assay type: in vivo, Sprague-Dawley rats; conditions: for TSH, mean: mean n=6, oral 12 μg/kg T3; for Individual animal TSH: individual animals 1-6, oral 12 μg/kg T3, hydrochloride salt
Experimental: (§1) T3 sodium, G-T3, V-T3, I-T3, Y-T3, A2-T3, P2-T3, or F2-T3 were administered at equimolar doses to Sprague-Dawley rats (12 μg/kg T3; HED˜120 μg T3 sodium; n=6, per group) that were hypothyroid due to removal of the thyroid gland approximately one week prior to evaluation. Serum was collected at 0 (pre-dose), 1, 2, 4, 6, 8 and 12 hours post-dose and analyzed for total T3 and TSH by chemiluminescent immunoassay (Immulite CIA). […] At 1 hour post dose the mean level of Total T3 was 327.3, 429.5, 432.7, 403.3, 431, and 433.1 ng/ml for G-T3, V-T3, I-T3, Y-T3, P2-T3, and F2-T3 dosed animals respectively as compared to 577 ng/ml for T3 sodium dosed animals. Applicants note that some variation in these values may be present as with A2-T3 (FIGS. 15 and 16).

[2] = set-up: species or system Sprague-Dawley rats; conditions: rat, in vivo
Experimental: Compounds were tested in Sprague-dawley rats (˜250 g). Defined doses were delivered as oral solutions in 0.5% sodium bicarbonate buffer with T3 sodium salt containing 12 mcgT3/kg or triiodothyronine composition containing the equivalent amount of T3. Rats were dosed immediately following 0 hour serum collection. Serum was collected from rats at 2, 4, 6, 9, 12 and 24 hours after capsule delivery. Total serum T3 concentrations were determined by ELISA using a commercially available kit (Total Triiodothyronine (total T3) ELISA KIT, product #1700, ALPHA DIAGNOSTIC, San Antonio, Tex.). Total serum T4 concentrations were determined by ELISA using a commercially available kit (Total Thyronine (Total T4) ELISA KIT, product #1100, ALPHA DIAGNOSTIC, San Antonio, Tex.).
The general procedures described above were employed for the experimental data described below. These procedures are subject to minor variations in timing and weight of rats, etc.
as §1

Total T3 AUC, % (of T3) [2] [%] | Total T3Δ dAUC, % (of T3) [2] [%] | Variability of T3 absorption compared with T3 sodium [2] | mean level of Total T3 at 1 hour post dose ([2]; po) [ng/mL] | SMILES | TSH, mean ([1]; 0 h (pre-dose)) [μIU] | TSH, mean ([1]; 1 h) [μIU] | TSH, mean ([1]; 2 h) [μIU] | TSH, mean ([1]; 4 h) [μIU] | TSH, mean ([1]; 6 h) [μIU] | TSH, mean ([1]; 8 h) [μIU] | TSH, mean ([1]; 12 h) [μIU] | TSH levels in response to administration ([1]; oral 12 μg/kg T3) | other results
104.4 | 113.4 | – | – | C[C@H](N)C(=O)N[C@@H](C)C(=O)N[C@@H](Cc1cc(I)c(Oc2ccc(O)c(I)c2)c(I)c1)C(=O)O [A2-T3] | 2.459 | 2.11 | 0.889 | 0.292 | 0.174 | 0.182 | 0.381 | decreased rapidly | –
88.3 | 94.7 | decreased variability of T3 absorption | 433.1 | N[C@@H](Cc1ccccc1)C(=O)N[C@@H](Cc1ccccc1)C(=O)N[C@@H](Cc1cc(I)c(Oc2ccc(O)c(I)c2)c(I)c1)C(=O)O [F2-T3] | 3.035 | 2.192 | 1.364 | 0.405 | 0.246 | 0.242 | 0.757 | decreased rapidly | –
– | – | – | – | Cl.NCC(=O)NC(Cc1cc(I)c(Oc2ccc(O)c(I)c2)c(I)c1)C(=O)O (centres unmarked) [G-T3, 2-(2-aminoacetoamido)-3-(4-(4-hydroxy-3-iodophenoxy)-3,5-diiodophenyl) propanoic acid, hydrochloride salt] | 2.021 | 2.098 | 1.289 | 0.292 | 0.162 | 0.151 | 0.427 | – | Individual animal TSH ([1]; 0 h (pre-dose)): 1.680 μIU and 2.584 μIU and 2.304 μIU and 1.956 μIU and 1.860 μIU and 1.740 μIU; Individual animal TSH ([1]; 1 h): 2.660 μIU and 2.564 μIU and 2.392 μIU and 1.960 μIU and 1.612 μIU and 1.400 μIU; Individual animal TSH ([1]; 2 h): 1.340 μIU and 1.472 μIU and 1.648 μIU and 1.160 μIU and 1.104 μIU and 1.008 μIU; Individual animal TSH ([1]; 4 h): 0.364 μIU and 0.352 μIU and 0.296 μIU and 0.216 μIU and 0.276 μIU and 0.248 μIU; Individual animal TSH ([1]; 6 h): 0.232 μIU and 0.172 μIU and 0.152 μIU and 0.112 μIU and 0.205 μIU and 0.100 μIU; Individual animal TSH ([1]; 8 h): 0.232 μIU and 0.172 μIU and 0.136 μIU and 0.124 μIU and 0.168 μIU and 0.076 μIU; Individual animal TSH ([1]; 12 h): 0.540 μIU and 0.612 μIU and 0.224 μIU and 0.548 μIU and 0.268 μIU and 0.372 μIU; TSH levels in response to administration ([1]; oral 12 μg/kg T3, hydrochloride salt): decreased rapidly; Tmax, % T3 ([2]; Sprague-Dawley): 125%; Total T3 AUC, % (of T3) ([2]; Sprague-Dawley): 88.1%; Total T3 AUClast, % T3 ([2]; Sprague-Dawley): 89%; Total T3 Cmax, % T3 ([2]; Sprague-Dawley): 79%; Total T3Δ AUClast, % T3 ([2]; Sprague-Dawley): 89%; Total T3Δ Cmax, % T3 ([2]; Sprague-Dawley): 78%; Total T3Δ dAUC, % (of T3) ([2]; Sprague-Dawley): 90.9%; Variability of T3 absorption compared with T3 sodium ([2]; Sprague-Dawley): decreased variability of T3 absorption; Release / absorption of T3 compared with T3 sodium ([2]; Sprague-Dawley, po): delayed release of T3; mean level of Total T3 at 1 hour post dose ([2]; Sprague-Dawley, po, 1 h): 327.3 ng/mL
96.6 | 100.8 | decreased variability of T3 absorption | 432.7 | CC[C@H](C)[C@H](N)C(=O)N[C@@H](Cc1cc(I)c(Oc2ccc(O)c(I)c2)c(I)c1)C(=O)O [I-T3] | 2.331 | 2.218 | 1.203 | 0.351 | 0.169 | 0.131 | 0.271 | decreased rapidly | –
